Columns and labels:
[1] = target: T1, PI3Kα (wild-type), P110/P85α (Homo sapiens, UniProt P42336); experiment: PI3 Kinase TR-FRET assay, PI3Kα (wild-type); type: biochemical
T1 construct: made in house; host or cells: SF9 insect cells
Description: The ability of compounds of the invention to inhibit PI3K activity was determined in a homogeneous TR-FRET assay using a PI3K assay kit (Millipore, USA; cat #33-016) according to manufacturer's instructions. PI3-Kinases (isoforms α, β, γ and δ) catalyze the phosphorylation of phosphatidylinositol, PIP2 to PIP3 in the presence of ATP and Mg^2+. The PIP3 product is detected by displacement of biotin-PIP3 from an energy transfer complex consisting of Europium labeled anti-GST monoclonal antibody, a GST-tagged PH domain, biotinylated PIP3 and Streptavidin-APC. Excitation of Europium in the complex results in an energy transfer to the APC and a fluorescence emission at 665 nm. The PIP3 product displaces biotin-PIP3 from the complex resulting in a loss of energy transfer and thus a decrease in signal.
To test for the ability of compounds to inhibit the activity of PI3Kα (wild-type), exemplary compounds of formula (I) were dissolved in DMSO and directly distributed into 384-well plates at a volume of 0.5 μL. 14.5 μL of P110/P85α/PIP2 mixture in buffer (obtained from the Millipore kit) containing MgCl2 (40 mM) and DTT (5 mM) was added to compound wells and incubated for 60 min at room temperature. P110/P85α was expressed in SF9 insect cells and purified nickel column extraction. Five ng of wild-type P110/P85α was used in the assay. The kinase reaction was started by the addition of ATP. The assay concentrations of both PIP2 and ATP were 10 μM. The reaction mixture was incubated for 30 min at room temperature and was terminated by the addition of stop mix and detection mix. Fluorescence was measured at 615 and 665 nm upon excitation at 340 nm in a Victor™ V5 fluorometer (Perkin Elmer, USA). The fluorescence emission ratio at 665 to 615 nm, proportional to the kinase activity, was plotted against the compound concentration to generate dose-response curves and IC50 values were determined using GraphPad Prism® 5 software.

[2] = target: T2, mTOR kinase (Homo sapiens, UniProt P42345); experiment: mTOR kinase TR-FRET assay; type: biochemical; details: read-out: mTO R
T2 construct: purchased Millipore, USA
Description: Compound inhibition for mTOR kinase was determined in a homogeneous TR-FRET assay using the Lance® ULight-p70 S6K (Thr 389) peptide (obtained from Perkin-Elmer). The ULight™-labeled synthetic peptide contains the amino acid residues surrounding Thr389 of human p70 S6K. The ULight-p70 S6K peptide is phosphorylated at Thr389 by mTOR. Phosphorylation motif: LGFTYVAP as substrate.
The compound dilution was carried out in 100% DMSO followed by a buffer dilution. The reaction buffer was HEPES (50 mM pH 7.5), EGTA (1 mM), MnCl2 (3 mM). Test compounds at various concentrations were pre-incubated with mTOR (Millipore, USA; 5 ng) for 60 min, and then the Lance® ULight-p70 S6K (Thr 389) peptide (50 nM) was added along with ATP (20 μM). After incubating the reaction mixture for 60 min at room temperature, the kinase reaction was terminated by the addition of EDTA (10 mM) followed by the addition of detection mix, i.e., 1 nM Eu-labeled anti-phospho-substrate antibody (Perkin Elmer, USA). The fluorescence emission at […] was measured upon excitation at 340 nm. IC50 values were subsequently determined using a sigmoidal dose-response curve (variable slope) in GraphPad Prism® 5 software.
Compounds of formula (I) caused inhibition of mTOR kinase activity as determined by this assay.

T1 sequence (P42336 whole entry): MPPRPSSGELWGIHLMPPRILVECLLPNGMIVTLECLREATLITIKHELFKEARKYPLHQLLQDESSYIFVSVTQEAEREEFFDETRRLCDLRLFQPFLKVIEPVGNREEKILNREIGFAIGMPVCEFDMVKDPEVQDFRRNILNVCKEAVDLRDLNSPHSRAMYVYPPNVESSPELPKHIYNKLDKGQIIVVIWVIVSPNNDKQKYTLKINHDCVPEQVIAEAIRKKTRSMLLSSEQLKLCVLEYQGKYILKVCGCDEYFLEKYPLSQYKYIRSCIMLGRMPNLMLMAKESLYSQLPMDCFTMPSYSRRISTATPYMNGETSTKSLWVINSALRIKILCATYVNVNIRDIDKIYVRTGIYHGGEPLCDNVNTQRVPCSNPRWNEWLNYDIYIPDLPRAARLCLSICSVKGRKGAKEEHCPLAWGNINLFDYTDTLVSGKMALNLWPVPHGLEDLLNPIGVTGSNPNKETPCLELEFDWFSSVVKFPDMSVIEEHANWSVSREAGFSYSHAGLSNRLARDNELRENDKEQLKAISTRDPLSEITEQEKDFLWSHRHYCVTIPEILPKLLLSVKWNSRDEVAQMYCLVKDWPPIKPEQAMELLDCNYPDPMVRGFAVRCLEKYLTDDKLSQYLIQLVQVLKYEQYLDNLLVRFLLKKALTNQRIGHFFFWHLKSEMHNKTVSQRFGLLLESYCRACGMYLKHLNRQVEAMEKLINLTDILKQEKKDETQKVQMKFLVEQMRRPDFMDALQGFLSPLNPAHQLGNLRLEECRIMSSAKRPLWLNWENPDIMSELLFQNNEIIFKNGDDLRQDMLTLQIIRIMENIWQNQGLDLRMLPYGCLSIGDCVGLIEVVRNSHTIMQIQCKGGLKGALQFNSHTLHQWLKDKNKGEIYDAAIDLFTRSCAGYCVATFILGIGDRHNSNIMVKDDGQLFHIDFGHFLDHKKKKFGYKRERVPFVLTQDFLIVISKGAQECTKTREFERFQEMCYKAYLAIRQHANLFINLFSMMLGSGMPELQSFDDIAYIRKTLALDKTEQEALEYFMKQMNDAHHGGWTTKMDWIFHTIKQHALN
T1 sequence (P27986 whole entry partner): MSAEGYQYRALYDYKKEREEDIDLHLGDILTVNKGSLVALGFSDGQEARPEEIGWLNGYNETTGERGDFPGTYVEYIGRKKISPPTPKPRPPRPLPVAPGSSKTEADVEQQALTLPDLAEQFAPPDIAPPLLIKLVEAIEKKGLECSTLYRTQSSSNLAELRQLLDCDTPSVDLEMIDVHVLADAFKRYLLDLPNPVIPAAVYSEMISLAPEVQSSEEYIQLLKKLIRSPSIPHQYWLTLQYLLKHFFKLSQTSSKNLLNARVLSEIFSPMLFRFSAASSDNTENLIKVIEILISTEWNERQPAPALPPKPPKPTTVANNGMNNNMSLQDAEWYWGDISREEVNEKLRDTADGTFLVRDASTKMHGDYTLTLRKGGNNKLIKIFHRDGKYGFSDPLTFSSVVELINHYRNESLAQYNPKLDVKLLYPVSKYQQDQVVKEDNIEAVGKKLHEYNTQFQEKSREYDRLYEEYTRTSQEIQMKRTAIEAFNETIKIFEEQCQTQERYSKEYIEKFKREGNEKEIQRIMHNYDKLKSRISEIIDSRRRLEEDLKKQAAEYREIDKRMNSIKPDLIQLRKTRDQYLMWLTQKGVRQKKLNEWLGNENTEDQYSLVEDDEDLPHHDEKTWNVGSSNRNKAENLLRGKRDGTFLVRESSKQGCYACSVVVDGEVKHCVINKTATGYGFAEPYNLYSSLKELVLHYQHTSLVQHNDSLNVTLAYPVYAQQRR

IC50 [1] | IC50 [2] | Compound
50 to 200 nM | 201 to 10000 nM | CN(C)C(=O)c1ccc(NC(=O)Nc2ccc(-c3nc(N4CCOCC4)c4ccc(-c5cccc(F)c5)cc4n3)cc2)cc1 [Example 47, 4-(3-{4-[7-(3-fluoro-phenyl)-4-morpholin-4-yl-quinazolin-2-yl]-phenyl}-ureido)-N,N-dimethyl-benzamide]
50 to 200 nM | 50 to 200 nM | COc1cccc(-c2ccc3c(N4CCOCC4)nc(-c4ccc(NC(=O)Nc5ccc(C(=O)N(C)C)cc5)cc4)nc3c2)c1 [Example 48, 4-(3-{4-[7-(3-methoxy-phenyl)-4-morpholin-4-yl-quinazolin-2-yl]-phenyl}-ureido)-N,N-dimethyl-benzamide]
< 50 nM | 50 to 200 nM | CN(C)C(=O)c1ccc(NC(=O)Nc2ccc(-c3nc(N4CCOCC4)c4ccc(-c5cccc(N(C)C)c5)cc4n3)cc2)cc1 [Example 50, 4-(3-{4-[7-(3-dimethylamino-phenyl)-4-morpholin-4-yl-quinazolin-2-yl]-phenyl}-ureido)-N,N-dimethyl-benzamide]
50 to 200 nM | < 50 nM | CNC(=O)c1ccc(NC(=O)Nc2ccc(-c3nc(N4CCOCC4)c4ccc(-c5ccc(C)o5)cc4n3)cc2)cc1 [Example 56, N-methyl-4-(3-{4-[7-(5-methyl-furan-2-yl)-4-morpholin-4-yl-quinazolin-2-yl]-phenyl}-ureido)-benzamide]
< 50 nM | 201 to 10000 nM | Cc1ccc(-c2ccc3c(N4CCOCC4)nc(-c4ccc(NC(=O)Nc5ccc(C(=O)N(C)C)cc5)nc4)nc3c2)o1 [Example 57, N,N-dimethyl-4-(3-{5-[7-(5-methyl-furan-2-yl)-4-morpholin-4-yl-quinazolin-2-yl]-pyridin-2-yl}-ureido)-benzamide]
50 to 200 nM | 201 to 10000 nM | Cc1ccc(-c2ccc3c(N4CCOCC4)nc(-c4ccc(NC(=O)Nc5ccc(C(=O)N(C)C)cc5)cc4)nc3c2)s1 [Example 61, N,N-dimethyl-4-(3-{4-[7-(5-methyl-thiophen-2-yl)-4-morpholin-4-yl-quinazolin-2-yl]-phenyl}-ureido)-benzamide]
201 to 10000 nM | 201 to 10000 nM | CN(C)C(=O)c1ccc(NC(=O)Nc2ccc(-c3nc(N4CCOCC4)c4ccc(-c5cc6ccccc6o5)cc4n3)cc2)cc1 [Example 64, 4-{3-[4-(7-benzofuran-2-yl-4-morpholin-4-yl-quinazolin-2-yl)-phenyl]-ureido}-N,N-dimethyl-benzamide]
50 to 200 nM | < 50 nM | Cc1ccc(-c2cccc3c(N4CCOCC4)nc(-c4ccc(NC(=O)Nc5ccc(C(=O)N(C)C)cc5)cc4)nc23)o1 [Example 71, N,N-dimethyl-4-(3-{4-[8-(5-methyl-furan-2-yl)-4-morpholin-4-yl-quinazolin-2-yl]-phenyl}-ureido)-benzamide]
< 50 nM | < 50 nM | CN(C)C(=O)c1ccc(NC(=O)Nc2ccc(-c3nc(N4CCOCC4)c4ccc(-c5cnc(N)nc5)cc4n3)cc2)cc1 [Example 76, 4-(3-{4-[7-(2-amino-pyrimidin-5-yl)-4-morpholin-4-yl-quinazolin-2-yl]-phenyl}-ureido)-N,N-dimethyl-benzamide]
< 50 nM | < 50 nM | CN(C)C(=O)c1ccc(NC(=O)Nc2ccc(-c3nc(N4CCOCC4)c4ncc(-c5cccnc5F)cc4n3)cc2)cc1 [Example 78, 4-(3-{4-[7-(2-fluoro-pyridin-3-yl)-4-morpholin-4-yl-pyrido[3,2-d]pyrimidin-2-yl]-phenyl}-ureido)-N,N-dimethyl-benzamide]
50 to 200 nM | < 50 nM | CN(C)C(=O)c1ccc(NC(=O)Nc2ccc(-c3nc(N4CCOCC4)c4cc(F)c(-c5cnn(C)c5)cc4n3)cc2F)cc1 [Example 108, 4-(3-(2-fluoro-4-(6-fluoro-7-(1-methyl-1H-pyrazol-4-yl)-4-morpholino-quinazolin-2-yl)phenyl)ureidodimethyl-benzamide)-N,N-dimethyl-benzamide]
50 to 200 nM | 50 to 200 nM | CN(C)C(=O)c1ccc(NC(=O)Nc2ccc(-c3nc(N4CCOCC4)c4cc(F)c(-c5cccnc5)cc4n3)cc2F)cc1 [Example 109, 4-(3-(2-fluoro-4-(6-fluoro-4-morpholino-7-(pyridin-3-yl)quinazolin-2-yl)phenyl)ureido)-N,N-dimethyl-benzamide]
201 to 10000 nM | < 50 nM | CN(C)C(=O)c1ccc(NC(=O)Nc2ccc(-c3nc(N4CCOCC4)c4ccc(-c5cnc(N)nc5)cc4n3)cc2F)cc1 [Example 110, 4-(3-(4-(7-(2-aminopyrimidin-5-yl)-4-morpholino-quinazolin-2-yl)-2-fluorophenyl)ureido)-N,N-dimethyl-benzamide]
50 to 200 nM | 50 to 200 nM | CN(C)C(=O)c1ccc(NC(=O)Nc2ccc(-c3nc(N4CCOCC4)c4ccc(-c5ccco5)cc4n3)cc2F)cc1 [Example 114, 4-(3-(2-fluoro-4-(7-(furan-2-yl)-4-morpholino-quinazolin-2-yl)phenyl)ureido)-N,N-dimethyl-benzamide]
< 50 nM | 201 to 10000 nM | COc1ncc(-c2ccc3c(N4CCOCC4)nc(-c4ccc(NC(=O)Nc5ccc(C(=O)N(C)C)cc5)nc4)nc3c2)cn1 [Example 119, 4-(3-(5-(7-(2-methoxypyrimidin-5-yl)-4-morpholino-quinazolin-2-yl)pyridin-2-yl)ureido)-N,N-dimethyl-benzamide]
50 to 200 nM | 50 to 200 nM | Cc1ccc(-c2ccc3c(N4CCOCC4)nc(-c4ccc(NC(=O)Nc5ccc(C(=O)N(C)C)nc5)c(F)c4)nc3c2)o1 [Example 122, 5-(3-(2-fluoro-4-(7-(5-methylfuran-2-yl)-4-morpholino-quinazolin-2-yl)phenyl)ureido)-N,N-dimethylpicolinamide]
201 to 10000 nM | 50 to 200 nM | CC1CN(c2nc(-c3ccc(NC(=O)Nc4ccc(C(=O)N(C)C)cc4)cc3)nc3cc(-c4cnn(C)c4)cnc23)CC(C)O1 (centres unmarked) [Example 125, 4-(3-(4-(4-(2,6-dimethylmorpholino)-7-(1-methyl-1H-pyrazol-4-yl)pyrido[3,2-d]pyrimidin-2-yl)phenyl)ureido)-N,N-dimethyl-benzamide]
201 to 10000 nM | 201 to 10000 nM | CC1CN(c2nc(-c3ccc(NC(=O)Nc4ccc(C(=O)N(C)C)cc4)c(F)c3)nc3cc(-c4cnn(C)c4)cnc23)CC(C)O1 (centres unmarked) [Example 126, 4-(3-(4-(4-(2,6-dimethylmorpholino)-7-(1-methyl-1H-pyrazol-4-yl)pyrido[3,2-d]pyrimidin-2-yl)-2-fluorophenyl)ureido)-N,N-dimethyl-benzamide]
201 to 10000 nM | 201 to 10000 nM | Cc1ccc(-c2ccc3c(N4CCOCC4)nc(-c4ccc(NC(=O)Nc5ccc(C(=O)N(C)C)cc5F)cc4)nc3c2)o1 [Example 136, 3-fluoro-N,N-dimethyl-4-(3-(4-(7-(5-methylfuran-2-yl)-4-morpholino-quinazolin-2-yl)phenyl)ureido)-benzamide]
201 to 10000 nM | 201 to 10000 nM | CN(C)C(=O)c1ccc(NC(=O)Nc2ccc(-c3nc(N4CCOCC4)c4ccc(-c5cncnc5)cc4n3)cc2F)c(F)c1 [Example 139, 3-fluoro-4-(3-(2-fluoro-4-(4-morpholino-7-(pyrimidin-5-yl)quinazolin-2-yl)phenyl)ureido)-N,N-dimethyl-benzamide]
< 50 nM | 201 to 10000 nM | CN(C)C(=O)c1ccc(NC(=O)Nc2ccc(-c3nc(N4CCOCC4)c4ccc(-c5cncnc5)cc4n3)cn2)c(F)c1 [Example 140, 3-fluoro-N,N-dimethyl-4-(3-(5-(4-morpholino-7-(pyrimidin-5-yl)quinazolin-2-yl)pyridin-2-yl)ureido)-benzamide]
201 to 10000 nM | 50 to 200 nM | CN(C)C(=O)c1ccc(NC(=O)Nc2ccc(-c3nc(N4CCOCC4)c4ncc(-c5cnn(C)c5)cc4n3)cc2F)c(F)c1 [Example 141, 3-fluoro-4-(3-(2-fluoro-4-(7-(1-methyl-1H-pyrazol-4-yl)-4-morpholino-pyrido[3,2-d]pyrimidin-2-yl)phenyl)ureido)-N,N-dimethyl-benzamide]

Reference: patent publication US9115092B2, “Substituted quinazoline and pyrido-pyrimidine derivatives” (Asana Biosciences, LLC, priority 2010, dated 2015)
